Data set [1] has as its system PAF-induced aggregation of rabbit blood platelets. Briefly: Anti-PAF activity in vitro, inhibition of PAF-induced platelet aggregation. The data set is classed as cell-based, rabbit (New Zealand hybrids). The settings on record: test substance concentration of 10^-5 mole/l, pH 7.4. An excerpt: 4. Determination of Anti-PAF Activity In Vitro
PAF (=Platelet Activating Factor) is a phospholipid mediator which has many effects. Activation of platelet aggregation induces protracted broncho-contraction and hyper-reactivity of the air paths.
In this test the effect of the test substances on platelet aggregation induced by adding PAF to a suspension of platelets obtained from rabbit blood is investigated using the method described by Mikashima et al. (Jap. J. Pharmacol. 44 (1987) 387-391).
A suspension of platelets obtained from rabbit blood containing 4×10^9 platelets/ml in a modified Tyrode buffer solution (=Tyrode solution with 1.3 mM/1 CaCl2 and 2.5 g/l gelatine added) adjusted to pH 7.4 was used. Tyrode solution is an aqueous solution containing 136.9 mmoles NaCl, 2.68 mmoles KCl, 2.31 mmoles CaCl2, 1.0 mmole MgCl2, 11.9 mmoles NaHCO3, 1.45 mmoles NaH2 PO4 and 5.55 mmoles glucose per liter. The platelets were obtained from 10 ml blood samples from each of three rabbits (New Zealand hybrids, body weight 3-4 kg). For this the blood samples were treated with ethylenediamine tetraacetic acid and washed according to the method of Artley et al. (Brit. J. Hematol. 19 (1970), 7-17). […]
To carry out the test 50 μl of the platelet suspension and 10 μl of a 40×10^-5 molar solution of the compound being investigated were added with stirring (1,000 rpm) to 330 μl of the modified Tyrode buffer solution in an aggregation tube provided with a small magnetic stirrer. […] The aggregation occurring in the aggregation tubes was measured over 4-5 minutes with the aid of a computerized aggregometer.
The aggregation which occurred in test tubes containing only platelet suspension was evaluated as 0%, whereas the aggregation which occurred in test tubes containing platelet suspension and PAF preparation was evaluated as 100%. The aggregation which still occurred during the inhibition of the PAF induced platelet aggregation due to the addition of the test substances was measured, and the resulting aggregation inhibition was calculated therefrom in %.

Data set [2] deals with cyclooxygenase (6-keto-PGF1α release). Put plainly: Cyclooxygenase inhibition: 6-keto-PGF1α release from zymosan-stimulated mouse peritoneal macrophage cells. The data set is classed as cell-based. The following applies: Peritoneal macrophage cell, read-out: In vitro % inhibition upon release of 6-keto-PGF1α. An excerpt: (§1) 5. In vitro Determination of Cyclooxygenase Inhibition and 5-Lipoxygenase Inhibition
(§2) After a cell is activated, arachidonic acid contained in cell membranes is metabolized in two ways. Leucotrienes, inter alia leucotriene C4, are formed due to the action of the enzyme 5-lipoxyqenase (=5-LO), and prostanoids are formed due to the action of the enzyme cyclooxygenase (=CO). In in vitro systems these metabolites are secreted from the cell.
(§3) To evaluate the cyclooxygenase-inhibiting and 5-lipoxygenase-inhibiting properties of the test substances, their inhibitory activity on the biosynthesis of the arachidonic acid derivatives leucotriene C4 (=LTC4) and 6-keto-prostaglandin F1α (=6-keto-PGF1 α) was determined in vitro on mouse peritoneal macrophage cells. For this purpose the LTC4 and 6-keto-PGF1 α contents of a mouse peritoneal macrophage cell culture medium were determined by zymosan stimulation as described by Scott et al. (J. Exp. Med. 152 (1980), 324-335) and by Fradin et al., (Prostaglandins, 33 (1987), 579-589).
(§4) A cell suspension containing peritoneal cells from male mice 8-10 weeks old was obtained in a known manner. A solution marketed under the designation RPMI 1640 (Manufactured by Gibco) was used as the cell culture medium, to which heparin (10 international units/ml) and antibiotics were added according to the procedure of Bonney et al. (Biochem. J. 176 (1978) 422-433). The cell suspension was adjusted to a cell concentration of 10^6 cells per ml and distributed uniformly on titer dishes containing 24 1-ml titer cells (wells). These were kept for two hours in a humidified incubator filled with air enriched with 7% CO2. Cells not adhering to the titer well walls were then removed by washing. The remaining macrophage cells adhering to the walls were incubated for about 12 hours in a suspension medium to which 0.1% of bovine serum albumin (BSA=Bovine Serum Albumin) was added. The suspension medium was then replaced by a Hanks salt solution (=Hanks Balanced Salt Solution=HBSS) with 10 mmoles of Hepes (=hydroxyethylpiperazinoethanesulfonic acid) to which a 0.1% strength solution of the test substances in aqueous, 1% strength dimethylformamide or only the solvent had been added. After 15 minutes the arachidonic acid metabolism was stimulated by adding […] of zymosan (=glycoprotein mixture isolated from cell walls of beer yeast, Saccharomyces cerevisiae, Manufactured by Sigma Chemical Co., Munich) per titre cell. After 2 hours samples of the respective supernatant liquid in each cell were examined for their 6-keto-PGF1α and LTC4 contents by an enzyme immunoassay (=EIA). This EIA is carried out following the method of Pradelles et al. (Analytical Chem. 57 (1985), 1170-1173). The determination of LTC4 and the determination of 6-keto-PGF1α were each carried out on suitable dilutions of the samples (1:50 to 1:250 for the LTC4 determination and 1:250 to 1:1,250 for the 6-keto-PGF1α determination) in comparison with a comparative scale. To determine the inhibiting effect of a 10^-5 molar concentration of the compounds, the amounts of reference eicosanoid were determined, and the inhibiting effect was calculated therefrom in % inhibition compared to the measurements of the zymosan controls.

Data set [3] concerns 5-lipoxygenase (LTC4 release). Put plainly: 5-Lipoxygenase inhibition: LTC4 release from zymosan-stimulated mouse peritoneal macrophage cells. Format: cell-based. The settings on record: Peritoneal macrophage cell, read-out: In vitro % inhibition upon release of LTC4.
Text: as §1, §2, §3, §4

The test system of data set [4] is mice. Put plainly: Determination of minimum toxic dose. Format: in vivo. The settings on record: mouse, per os; lowest dose producing death or severe toxic symptoms, maximum dose 300 mg/kg, 24 hours. As to the method: 2. Determination of Minimum Toxic Dose
Maximum doses of 300 mg/kg of the test substance were administered orally to male mice weighing 20-25 g. The animals were observed carefully for 3 hours for toxicity symptoms. In addition, all symptoms and deaths were recorded over a period of 24 hours after administration. Associated symptoms were also observed and recorded. If death or severe toxic symptoms were observed, additional mice were administered increasingly lower doses. The lowest dose which produced death or severe toxic symptoms is given in the following Table B as the minimum toxic dose.

The target of data set [5] is T1, histamine-(H1)-receptor (Cavia porcellus, UniProt P31389).
T1 construct: Segments of the ileum 1.5 cm long from Dunkin Hartley guinea pigs; from tissue; host or cells: isolated ileum segments of Dunkin Hartley guinea pigs
T1 sequence (P31389 whole entry): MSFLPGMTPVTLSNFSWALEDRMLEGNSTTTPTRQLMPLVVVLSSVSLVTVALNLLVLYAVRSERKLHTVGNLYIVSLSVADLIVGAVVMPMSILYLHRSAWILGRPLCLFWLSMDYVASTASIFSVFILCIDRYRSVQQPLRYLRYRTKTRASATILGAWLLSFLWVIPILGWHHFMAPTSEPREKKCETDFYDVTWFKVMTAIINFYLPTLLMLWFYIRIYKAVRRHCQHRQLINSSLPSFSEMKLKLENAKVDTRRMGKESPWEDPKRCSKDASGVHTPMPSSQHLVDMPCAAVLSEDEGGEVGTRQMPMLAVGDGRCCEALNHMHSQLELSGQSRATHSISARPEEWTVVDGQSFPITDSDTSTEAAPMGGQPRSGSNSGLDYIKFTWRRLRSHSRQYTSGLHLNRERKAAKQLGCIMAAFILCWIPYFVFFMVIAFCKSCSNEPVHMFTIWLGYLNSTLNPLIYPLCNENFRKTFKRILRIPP
Put plainly: Anti-histamine-(H1) effect, inhibition of histamine-induced contraction of isolated guinea pig ileum in vitro. The data set is classed as cell-based, Dunkin Hartley guinea pigs. The following applies: histamine 5 × 10^-6 mole/l, test substance 10^-6 mole/l. As to the method:
3. Investigation of Anti-Histamine-(H1) Effect Based on Histamine-(H1)-Receptor Antagonism In Vitro
To investigate the histamine-(H1)-receptor antagonism of the test substances, the inhibiting effect of the substances on histamine-induced contractions of the smooth muscle was determined in vitro on the isolated organ. Isolated strips of organ from the ileum are suitable for this purpose. In an organ bath of physiological saline solution the smooth muscle strips react to the addition of histamine by contracting. […] The extent of regression of the contraction is an indication of the anti-histamine-(H1) activity of the compounds. The investigation was carried out analogously to the method originally described by Magnus (Pfluegers Arch. 102, 123 (1904)). Procedure for determining the smooth muscle contraction inhibiting effect on isolated guinea pig ileum induced by a 5×10^-6 molar histamine concentration.
Segments of the ileum 1.5 cm long from Dunkin Hartley guinea pigs having a body weight of 300 500 g were used for the test. Each strip was placed in an organ bath of 10 ml of physiological saline solution according to Krebs-Henseleit and attached to a conventional apparatus for isotonic measurement of changes in length of the ileum strips (automated Celaster measuring apparatus), so that the tissue was under 1 g of tension. The bath was kept at a pH of 7.4 and gassed with a mixture of 5% CO2 and 95% 02. After an equilibration phase, an isotonic contraction of the tissue was induced by adding histamine in a final concentration of 5×10^-6 mole/liter and washing it out again after a contact time of 30 seconds. Only tissues samples from which three reproducible contractions were obtained at 10 minute intervals were used in the subsequent test. The test substances were then added in a final concentration of 10^-6 mole/liter, and after 30 seconds contact time histamine was again added up to a concentration of 5×10^-6 mole/liter. The resulting contractions were measured over 30 seconds. The tissue was then washed several times over a period of 10 minutes. Histamine was then added again to stimulate a contraction. The resulting contractions were again measured over 30 seconds. The difference between the amplitude of the contraction obtained by histamine addition alone and the amplitude of the contraction obtained in the presence of the test substance was determined and expressed in terms of % inhibition.
The inhibiting effects on the contractions induced by histamine 30 seconds after administration of the test substance and on the contractions induced by the addition of histamine 10 minutes later are listed in the table.

The mark [6] stands for this setting: zymosan-stimulated mouse peritoneal macrophage cells, 10^-5 mole/l.

Like-named read-outs stand apart in the source and are kept apart here.

One may read the inhibition as the change of the read-out against control, counted positive when it falls.

As to `N#CC1(c2ccccc2)CCN(CCCC2Oc3ccc(Cl)cc3NC2=O)CC1` (stereo not drawn) [Example 14], the “% inhibition of the PAF-induced aggregation of rabbit blood platelets” value (shortened to “% inhibition … of rabbit blood platelets”) in data set [1] came out at 57%. Moreover, the results for the inhibition at 10 µM in data set [2] (Mus musculus) and in data set [3] (Mus musculus) were 25% and 10%, respectively.
The compound `O=C1Nc2ccccc2SC1CCCN1CCC(Cc2ccccc2)CC1` (stereo not drawn) [Example 21] came in with a Minimum toxic dose in data set [4] of 100 mg/kg. Further, the “% inhibition … of rabbit blood platelets” value in data set [1] is 33%. The inhibition at 10 µM in data set [2] (setting [6]) stood at 11%; in data set [3] (setting [6]), 24%.
Regarding `Cc1cc2c(cc1C)SC(CCCCN1CC=C(c3ccccc3)CC1)C(=O)N2` (stereo not drawn) [Example 19], the “% inhibition … of rabbit blood platelets” value in data set [1] is 72%. In addition, the values for the inhibition at 10 µM in data set [2] (setting [6]) and in data set [3] (setting [6]) were 16% and 57%, respectively.
For the compound `O=C1Nc2ccccc2OC1CCCCN1CCC(c2ccccc2)CC1` (stereo not drawn) [Example 9], the “in vitro (H1)-receptor antagonism, % inhibition of histamine-induced ileum contractions after 30 seconds” value in data set [5] (after 30 seconds) was 35%. Besides, the “in vitro (H1)-receptor antagonism, % inhibition of histamine-induced ileum contractions after 10 minutes” value in data set [5] (after 10 minutes) is reported as 12%.

Source of the values: patent US5283243A, “Piperidinoalkylbenzoxazine and piperidinoalkylbenzothiazine compounds, and medicaments containing them” (Kali-Chemie Pharma GmbH, priority 1990, dated 1994).
